The target of data set [1] is T1, EGFR (Homo sapiens, UniProt P00533). Kind of data set: EGFR activity assay (kinase inhibition). It is filed as biochemical. To be noted: concentration 20000 nM; read-out: EGFR inhibitory data, Mean (percentage of inhibition). As for the experimental part:
Six compounds were screened on EGFRs using staurosporine obtained from MedChemExpress (Cat. No. HY-15141; Lot. No. 41248) as the reference compound. In the bioassay for the EGFRs, testing kinases were performed in 1× kinase base buffer containing 50 mM HEPES (pH 7.5) and 0.0015% Brij-35, and stop buffer containing 100 mM HEPES (pH 7.5), 0.0015% Brij-35, 0.2% Coating Reagent #3, and 50 mM EDTA. For the compound preparing part, compounds were diluted to 50X of the final desired highest inhibitor concentration in the reaction by 100% DMSO, and 100 µL of the compound dilution was transferred to a well in a 96-well plate. Additionally, 100 µL of 100% DMSO was added to two empty wells for a no-compound control and a no-enzyme control in the same 96-well plate, which was marked as the source plate. […]. The compounds were mixed in an intermediate plate for 10 min on a shaker. For the assay plate, 5 µL of each well from the 96-well intermediate plate was transferred to a 384-well plate in duplicates. For the kinase reaction, 2.5× enzyme solution and 2.5× peptide solution were prepared. Moreover, 5 µL of compound were settled in the assay plate with 10% DMSO. Additionally, 10 µL of 2.5× enzyme solution was added to each well of the 384-well assay plate that was incubated at room temperature for 10 min. Then, 10 µL of 2.5× peptide solution was added to each well of the 384-well that was incubated at 28 °C for 30 min and stopped by 25 µL stop buffer. The percentage of inhibition was estimated using max-conversion divided by the max-min, and inhibition values were converted by convert conversion values from the caliper program. IC50 values were obtained from fitting the data in the XLfit excel add-in version 4.3.1.

Data set [2] deals with mouse lymphocytic leukemia L1210 cells. The arrangement: method as in doi:10.1021/jo00269a027. To be noted: as low as; cited from earlier work.
In data set [3] the target is T1, EGFR. On the set-up: method as in PMID 27940262. To be noted: read-out: EGFR inhibitory activity IC50; cited from earlier work.

What is called inhibition is the drop in the measured response relative to a control, in per cent. Broadly, the melting point is the temperature, or range, at which the solid turns liquid. The IC50 is the concentration at which inhibition is half-maximal.

T1 sequence (P00533 25-1210): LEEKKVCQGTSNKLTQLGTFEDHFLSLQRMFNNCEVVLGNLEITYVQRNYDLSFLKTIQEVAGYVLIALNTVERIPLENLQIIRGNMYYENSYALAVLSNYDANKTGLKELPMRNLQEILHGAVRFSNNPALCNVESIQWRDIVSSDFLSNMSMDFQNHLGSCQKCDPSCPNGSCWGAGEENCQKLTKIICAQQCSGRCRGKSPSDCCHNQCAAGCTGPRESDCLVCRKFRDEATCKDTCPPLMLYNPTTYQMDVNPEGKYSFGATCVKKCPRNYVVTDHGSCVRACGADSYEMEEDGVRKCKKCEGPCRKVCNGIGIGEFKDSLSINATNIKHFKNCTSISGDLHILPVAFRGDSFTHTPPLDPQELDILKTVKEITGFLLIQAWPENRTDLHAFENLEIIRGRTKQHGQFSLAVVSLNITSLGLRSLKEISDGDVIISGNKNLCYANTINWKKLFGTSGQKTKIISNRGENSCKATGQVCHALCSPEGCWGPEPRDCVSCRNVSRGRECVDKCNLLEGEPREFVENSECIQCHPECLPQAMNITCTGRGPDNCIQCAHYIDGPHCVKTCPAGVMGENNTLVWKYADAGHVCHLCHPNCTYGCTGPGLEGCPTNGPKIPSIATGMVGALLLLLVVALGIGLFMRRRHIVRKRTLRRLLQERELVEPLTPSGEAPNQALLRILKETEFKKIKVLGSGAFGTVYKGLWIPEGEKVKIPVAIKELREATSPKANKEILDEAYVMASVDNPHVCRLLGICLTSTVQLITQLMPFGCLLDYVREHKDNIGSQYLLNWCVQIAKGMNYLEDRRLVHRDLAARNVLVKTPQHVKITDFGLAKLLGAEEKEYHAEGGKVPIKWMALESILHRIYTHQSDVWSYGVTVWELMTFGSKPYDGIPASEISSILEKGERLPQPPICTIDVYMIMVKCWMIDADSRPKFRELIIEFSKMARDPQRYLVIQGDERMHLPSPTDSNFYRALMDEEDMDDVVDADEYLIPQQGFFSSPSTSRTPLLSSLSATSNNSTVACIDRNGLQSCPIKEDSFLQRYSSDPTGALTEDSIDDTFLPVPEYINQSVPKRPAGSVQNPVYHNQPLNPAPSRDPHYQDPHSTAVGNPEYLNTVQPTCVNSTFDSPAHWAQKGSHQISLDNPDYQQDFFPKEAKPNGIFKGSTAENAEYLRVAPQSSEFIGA

In the case of `C=C1CC[C@H](C(C)C)[C@@H]2[C@H]1[C@@H]1O[C@H]2[C@](C)(OC(=O)CCC)CC[C@H](OC)[C@@](C)(O)[C@H]1O` [Compound 5, kremfielin B], on EGFR [1], the inhibition at 20 µM was -7.5%.

As for `C=C1C(O)CCC(C)(OC(=O)CCC)C2OC(C1OC(C)=O)C1C(=C)C(O)CC(C(C)C)C12` (stereo not drawn) [Compound 1, litophynol C], the melting point lay in the range of 183 to 184 °C. On EGFR [1], the inhibition at 20 µM was -9.9%.

With `C=C1CC[C@H](C(C)C)[C@@H]2[C@H]1[C@H]1C[C@](C)(O)[C@@H](O)CC[C@@](C)(O)[C@@H]2O1` [sclerophytin A], the “concentration showing significant cytotoxicity” value in data set [2] is on record as 1 ng/mL.

With `C=C1C(OO)CCC(C)(OC(=O)CCC)C2OC(C1OC(C)=O)C1C(=C)C(O)CC(C(C)C)C12` (stereo not drawn) [Compound 2, litophynol D], on EGFR [1], the inhibition at 20 µM is -12.5%.

As to `CCCC(=O)O[C@]1(C)CC[C@H](C(C)C)[C@@H]2[C@H]1[C@H]1C[C@](C)(O)[C@@H](O)CC[C@@](C)(OC(C)=O)[C@@H]2O1` [pachycladin A], the concentration for half-maximal inhibition (IC50) at EGFR [3] is 500 nM.

Regarding `C=C1CC[C@H](C(C)C)[C@@H]2[C@H]1[C@H]1C[C@](C)(O)[C@@H](O)CC[C@@](C)(OC(=O)CCC)[C@@H]2O1` [Compound 6, litophynin E], the inhibition at 20 µM at EGFR [1] was -4.9%.

On to `C=C1CC[C@H](C(C)C)[C@@H]2[C@H]1[C@@H]1O[C@H]2[C@](C)(OC(=O)CCC)CC[C@H](O)C(=C)[C@H]1O` [Compound 3, litophynol A], for which the inhibition at 20 µM on EGFR [1] is -3.8%.

As for `C=C1CC[C@H](C(C)C)[C@@H]2[C@H]1[C@@H]1O[C@H]2[C@](C)(OC(=O)CCC)CC[C@H](O)C(=C)[C@H]1OC(=O)CCC` [Compound 4, 8-butyryl-litophynol A], the inhibition at 20 µM on EGFR [1] is -3.4%.

Values taken from article PMC9229255, “New Cladiellin-Type Diterpenoids from the South China Sea Soft Coral Cladiella krempfi: Structures and Molecular Docking Analysis in EGFRs” (Marine Drugs, 2022).
